# Reference: US8865748B2, “Compounds and compositions for stabilizing hypoxia inducible factor-2 alpha as a method for treating cancer” (Akebia Therapeutics Inc., priority 2011, dated 2014)
# What was measured:
# sVEGFR-1 = sVEGFR-1 production by human peripheral blood monocytes (ELISA, real-time PCR); assay type: cell-based; details: monocytes stimulated with 100 ng/mL GM-CSF, presence vs. absence of 10 μM stabilizer, FIG. 11B
# Procedure: Human peripheral blood mononuclear cells (PBMCs) were isolated from fresh peripheral blood leukocyte source packs (American Red Cross, Columbus Ohio) by density gradient centrifugation over Lymphocyte Separation Medium (Cellgro). Monocytes were purified from total PBMCs by layering over FBS. Monocytes were cultured in endotoxin-free RPMI-1640 supplemented with 1% fetal bovine serum (FBS), 0.1% human serum albumin (HSA), and 10 μg/mL of the endotoxin inhibitor polymyxin B. In some experiments, freshly isolated monocytes were differentiated into macrophages by three-day culture in media containing 10% FBS, 1% PSA (penicillin G sodium, streptomycin sulfate, and amphotericin B), and 20 ng/mL M-CSF. Macrophages were serum-starved for 2 hours prior to stimulation. Monocytes or monocyte-derived macrophages were treated for 24 hours with 10 ng/mL GM-CSF, 10 μM disclosed HIF-2α stabilizer, or an equivalent volume of the vehicle controls (PBS or DMSO, respectively). Cell-free culture supernatants were harvested and analyzed for VEGF or sVEGFR-1 by ELISA (R&D Systems).
# Human monocytes were left untreated or were stimulated with 100 ng/mL GM-CSF at normoxia or at 0.5% O2. At various time-points, cells were harvested in Trizol reagent (Invitrogen) and RNA was extracted in chloroform and then purified using the RNeasy Minikit (Qiagen). […] Data were analyzed according to the comparative threshold method and normalized against the β-actin internal control transcript. Results are semi-quantitative and represent the fold difference in transcript levels in a particular sample as compared with levels in untreated cells from the same donor.
# Since monocyte production of VEGF was dependent on HIF-1α, the inventors herein determined whether selective stabilization of HIF-1α via inhibition of PHD2 would increase monocyte production of VEGF but not sVEGFR-1. […]
# HIF-2α = assay: Immunoblot for HIF-2α in murine bone marrow-derived macrophages; assay type: cell-based; details: treated for 18 hours, FIG. 11A
# Procedure: (§1) To generate bone marrow-derived macrophages (BDMs), femoral bone marrow was isolated and progenitor cells were plated in RPMI-1640 supplemented with 10% FBS, 1% PSA, 10 μg/mL of polymyxin B, and 20 ng/mL of recombinant murine M-CSF. Cells were cultured for 5 days with the addition of fresh M-CSF every other day. Differentiated BDM were serum-starved for 2 hours and then treated with 100 ng/mL of murine GM-CSF and/or 25 μM the disclosed HIF-2α stabilizer in RPMI-1640 containing 1% FBS and 10 μg/mL polymixin B. Culture supernatants were collected after 72 hours and assayed for VEGF and sVEGFR-1 content by ELISA (R&D Systems).
# (§2) In order to confirm the selective upregulation of HIF-2α by the disclosed HIF-2α stabilizer, murine bone marrow-derived macrophages were treated with the disclosed HIF-2α stabilizer for 18 hours, and cells were then lysed and immunoblotted for HIF-1α and HIF-2α.
# HIF-1α = assay: Immunoblot for HIF-1α in murine bone marrow-derived macrophages; assay type: cell-based; details: treated for 18 hours, FIG. 11A
# Procedure: as §1, §2
# Pmel17 mRNA = assay: Evaluation of lung metastases (Pmel17 mRNA, nested PCR) in B16F10 tumor-bearing mice; assay type: in vivo; details: FIG. 5; stabilizer I.P., GM-CSF I.T.; vs. vehicle control
# Procedure: Lung metastases were evaluated by detection of mRNA for melanocyte-specific proteins within the lungs of tumor-bearing mice. B16F10 tumor-bearing mice were treated with GM-CSF and/or the disclosed HIF-2α stabilizer, as depicted in FIG. 3. At the time of sacrifice, lungs were excised and flash-frozen in liquid nitrogen. Frozen lungs were homogenized in liquid nitrogen and the pulverized material was dissolved in TRIzol™ reagent (Invitrogen). […] The melanocyte-specific Pmel17 was detected by nested PCR using a modification of the protocol described by Tsukamoto et al. For the initial reaction, 30 cycles of PCR were carried out (95° C. for 1 minute, 58° C. for 1 min, 72° C. for 1 min) in a 20 μL reaction volume containing 2 μL of cDNA. […] Data were analyzed according to the comparative threshold method and normalized against the GAPDH internal control transcript. Results are semi-quantitative and represent the fold difference in transcript levels in vehicle-treated control mice as compared with levels in mice treated with the disclosed HIF-2α stabilizer and/or GM-CSF.
# Lung metastases were evaluated by detection of mRNA for melanocyte-specific proteins within the lungs of tumor-bearing mice. […] Data were analyzed according to the comparative threshold method and normalized against the β-actin internal control transcript. […]
smiles,measurement,setting,value
"O=C(O)CNC(=O)c1ncc(-c2cccc(F)c2)cc1O [disclosed HIF-2α stabilizer, {[5-(3-Fluorophenyl)-3-hydroxypyridine-2-carbonyl]amino}acetic acid]","sVEGFR-1 production, protein level",sVEGFR-1; p=0.007,increased significantly
same,"sVEGFR-1 production, transcript level",sVEGFR-1; p=0.033,increased significantly
same,HIF-2α protein,HIF-2α,increase
same,HIF-1α protein,HIF-1α,no corresponding increase
same,relative metastasis to the lung as measured by Pmel17 mRNA expression,Pmel17 mRNA,reduced metastasis
